Laboratory results published in patent US11702404B2, “GLP-1R modulating compounds” (priority 2019, dated 2023).

Assays:
[1] = Microsomal stability, human liver microsomes (predicted hepatic clearance); conditions: predicted from in vitro microsomal stability data
GLP-1R = GLP-1R (Homo sapiens, UniProt P43220); experiment: GLP-1R activation: cAMP increase in CHO cells stably expressing GLP-1R; type: cell-based; conditions: cAMP increase, CHO cells stably expressing GLP-1R, 10 point dose response, 30 minutes incubation; read-out: EC50
GLP-1R, sequence (P43220 24-463): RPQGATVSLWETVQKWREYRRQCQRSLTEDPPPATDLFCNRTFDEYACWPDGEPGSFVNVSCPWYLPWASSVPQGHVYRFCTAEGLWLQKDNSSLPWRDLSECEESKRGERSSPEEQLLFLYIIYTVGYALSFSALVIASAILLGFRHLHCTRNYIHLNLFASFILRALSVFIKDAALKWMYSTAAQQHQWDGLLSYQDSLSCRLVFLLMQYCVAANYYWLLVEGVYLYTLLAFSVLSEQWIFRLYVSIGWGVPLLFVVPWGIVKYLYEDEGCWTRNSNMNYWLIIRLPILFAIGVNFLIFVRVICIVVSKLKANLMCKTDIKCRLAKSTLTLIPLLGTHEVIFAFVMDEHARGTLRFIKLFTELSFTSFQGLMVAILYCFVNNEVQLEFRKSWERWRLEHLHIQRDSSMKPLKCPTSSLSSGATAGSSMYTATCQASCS

Row | SMILES | Predicted Hepatic Clearance (Pred. Cl.) [1] | EC50 (GLP-1R)
1 | N#Cc1ccc(COc2cccc(-c3cc(F)c(Cc4nc5ccc(C(=O)O)cc5n4Cc4ccns4)cc3F)n2)c(F)c1 [Example 579, 2-(4-(6-((4-cyano-2-fluorobenzyl)oxy)pyridin-2-yl)-2,5-difluorobenzyl)-1-(isothiazol-5-ylmethyl)-1H-benzo[d]imidazole-6-carboxylic acid] | 16 mL/min/kg | 0.35 nM
2 | COCCn1c(Cc2c(F)cc(-c3cccnc3OCc3ccccc3)cc2F)nc2ccc(C(=O)O)cc21 [Example 186, 2-(4-(2-(benzyloxy)pyridin-3-yl)-2,6-difluorobenzyl)-1-(2-methoxyethyl)-1H-benzo[d]imidazole-carboxylic acid] | 11.5 mL/min/kg | 812 nM
3 | COCCn1c(Cc2ccc(-c3cccc(OCc4c(F)cc(Cl)cc4OC)n3)cc2F)nc2ccc(C(=O)O)cc21 [Example 435, 2-(4-(6-((4-chloro-2-fluoro-6-methoxybenzyl)oxy)pyridin-2-yl)-2-fluorobenzyl)-1-(2-methoxyethyl)-1H-benzo[d]imidazole-6-carboxylic acid] | 6.17 mL/min/kg | 8.7 nM
4 | N#CCC1(Cn2c(Cc3cc(F)c(-c4nc(OCc5ccc(C#N)cc5F)ncc4F)cc3F)nc3ccc(C(=O)O)nc32)CC1 [Example 129, 2-(4-(2-((4-cyano-2-fluorobenzyl)oxy)-5-fluoropyrimidin-4-yl)-2,5-difluorobenzyl)-3-((1-(cyanomethyl)cyclopropyl)methyl)-3H-imidazo[4,5-b]pyridine-5-carboxylic acid] | 3.17 mL/min/kg | 0.7 nM
5 | COCCn1c(C(C)c2ccc(-c3cccc(OCc4ccc(C#N)cc4F)n3)cc2)nc2ccc(C(=O)O)cc21 (single isomer, unassigned) [Example 418, 2-(1-(4-(6-((4-cyano-2-fluorobenzyl)oxy)pyridin-2-yl)phenyl)ethyl)-1-(2-methoxyethyl)-1H-benzo[d]imidazole-6-carboxylic acid] | 4.83 mL/min/kg | 18.3 nM
6 | N#CCC1(Cn2c(Cc3ccc(-c4ccc(F)c(OCc5ccc(C#N)cc5F)n4)cc3F)nc3ccc(C(=O)O)cc32)CC1 [Example 162, 2-(4-(6-((4-cyano-2-fluorobenzyl)oxy)-5-fluoropyridin-2-yl)-2-fluorobenzyl)-1-((1-(cyanomethyl)cyclopropyl)methyl)-1H-benzo[d]imidazole-6-carboxylic acid] | <1.83 mL/min/kg | 0.17 nM
7 | N#Cc1ccc(COc2nccc(-c3cc(F)c(Cc4nc5ccc(C(=O)O)cc5n4C[C@@H]4CCO4)cc3F)n2)c(F)c1 [Example 415, (S)-2-(4-(2-((4-cyano-2-fluorobenzyl)oxy)pyrimidin-4-yl)-2,5-difluorobenzyl)-1-(oxetan-2-ylmethyl)-1H-benzo[d]imidazole-6-carboxylic acid] | 4.33 mL/min/kg | 0.15 nM
8 | N#Cc1ccc(COc2cccc(-c3cc(F)c(Cc4nc5ccc(C(=O)O)cc5n4CCOCC(F)(F)F)cc3F)n2)c(F)c1 [Example 827] | 7.17 mL/min/kg | 1.97 nM
9 | N#Cc1ccc(COc2cccc(-c3cc(F)c(Cc4nc5ccc(C(=O)O)cc5n4[C@H]4CCC[C@@]45CCCO5)cc3F)n2)c(F)c1 [Example 710] | 11 mL/min/kg | 1.45 nM
10 | COCCn1c(Cc2cc(F)c(-c3cccc(OCc4ccc(C#N)cc4F)n3)cc2F)nc2cc(Cl)c(C(=O)O)cc21 [Example 837] | 1.83 mL/min/kg | 29.3 nM
11 | N#Cc1ccc(COc2cccc(-c3cc(F)c(Cc4nc5ccc(C(=O)O)cc5n4CC45CC(CCO4)C5)cc3F)n2)c(F)c1 [Example 623] | 10.7 mL/min/kg | 4.04 nM
12 | COCCn1c(Cc2ccc(-c3cccc(OCc4ccc(C#N)cc4F)n3)cc2-c2cnn(C(F)F)c2)nc2ccc(C(=O)O)cc21 [Example 190, 2-(4-(6-((4-cyano-2-fluorobenzyl)oxy)pyridin-2-yl)-2-(1-(difluoromethyl)-1H-pyrazol-4-yl)benzyl)-1-(2-methoxyethyl)-1H-benzo[d]imidazole-6-carboxylic acid] | 6.83 mL/min/kg | 252 nM
13 | COCCn1c(Cc2cc(F)c(-c3cccc(OCc4ccc(Br)c5c4COC5)n3)cc2F)nc2ccc(C(=O)O)cc21 [Example 874] | 1.83 mL/min/kg | 34.7 nM
14 | COCCn1c(Cc2cc(F)c(-c3cccc(OCc4ccc(-c5cnccn5)cc4F)n3)cc2F)nc2ccc(C(=O)O)cc21 [Example 916] | 1.83 mL/min/kg | 2.18 nM
15 | O=C(O)c1ccc2nc(Cc3cc(F)c(-c4ccnc(OCc5ccc(Cl)cc5F)n4)cc3F)n(C[C@@H]3CCO3)c2c1 [Example 413, (S)-2-(4-(2-((4-chloro-2-fluorobenzyl)oxy)pyrimidin-4-yl)-2,5-difluorobenzyl)-1-(oxetan-2-ylmethyl)-1H-benzo[d]imidazole-6-carboxylic acid] | <1.83 mL/min/kg | 0.07 nM
16 | N#CCC1(Cn2c(Cc3c(F)cc(-c4ccnc(OCc5ccc(C#N)cc5F)n4)cc3F)nc3ccc(C(=O)O)cc32)CC1 [Example 399, 2-(4-(2-((4-cyano-2-fluorobenzyl)oxy)pyrimidin-4-yl)-2,6-difluorobenzyl)-1-((1-(cyanomethyl)cyclopropyl)methyl)-1H-benzo[d]imidazole-6-carboxylic acid] | 3.3 mL/min/kg | 2.81 nM
17 | Cn1c(Cc2ccc(-c3cccc(OCc4ccc(C#N)cc4F)n3)cc2F)nc2ccc(C(=O)O)cc21 [Example 354, 2-(4-(6-((4-cyano-2-fluorobenzyl)oxy)pyridin-2-yl)-2-fluorobenzyl)-1-methyl-1H-benzo[d]imidazole-6-carboxylic acid] | 7.5 mL/min/kg | 146 nM
18 | COC(Cn1c(Cc2ccc(-c3cccc(OCc4ccc(C#N)cc4F)n3)cc2F)nc2ccc(C(=O)O)cc21)C(=O)O (single isomer, unassigned) [Example 333, 1-(2-carboxy-2-methoxyethyl)-2-(4-(6-((4-cyano-2-fluorobenzyl)oxy)pyridin-2-yl)-2-fluorobenzyl)-1H-benzo[d]imidazole-6-carboxylic acid] | <1.83 mL/min/kg | 624 nM
19 | N#Cc1ccc(COc2cccc(-c3ccc(Cc4nc5cc(F)c(C(=O)O)cc5n4C[C@@H]4CCO4)c(F)c3)n2)c(F)c1 [Example 206] | 3.5 mL/min/kg | 0.86 nM
20 | O=C(O)c1ccc2nc(Cc3cc(F)c(-c4ccnc(OCc5ccc(C(F)F)cc5F)n4)cc3F)n(CC34CC(CO3)C4)c2c1 [Example 671] | 1.83 mL/min/kg | 1.76 nM
21 | CO[C@H]1CCC[C@@H]1n1c(Cc2cc(F)c(-c3cccc(OCc4ccc(C#N)cc4F)n3)cc2F)nc2ccc(C(=O)O)cc21 [Example 709] | 8.83 mL/min/kg | 4.77 nM
22 | COc1cc(C#N)ccc1COc1nccc(-c2cc(F)c(Cc3nc4ccc(C(=O)O)nc4n3CC3(CF)CC3)cc2F)n1 [Example 119, 2-(4-(2-((4-cyano-2-methoxybenzyl)oxy)pyrimidin-4-yl)-2,5-difluorobenzyl)-3-((1-(fluoromethyl)cyclopropyl)methyl)-3H-imidazo[4,5-b]pyridine-5-carboxylic acid] | <1.83 mL/min/kg | 0.56 nM
23 | N#Cc1ccc(COc2nc(-c3ccc(Cc4nc5c(F)cc(C(=O)O)cc5n4CC45CC(CO4)C5)c(F)c3)ccc2F)c(F)c1 [Example 771] | 1.83 mL/min/kg | 2.17 nM
24 | N#Cc1ccc(COc2cccc(-c3ccc(Cc4nc5ccc(C(=O)O)cc5n4Cc4cncn4C4CC4)c(F)c3)c2)c(F)c1 [Example 8, 2-((3′-((4-cyano-2-fluorobenzyl)oxy)-3-fluoro-[1,1′-biphenyl]-4-yl)methyl)-1-((1-cyclopropyl-1H-imidazol-5-yl)methyl)-1H-benzo[d]imidazole-6-carboxylic acid] | 4.33 mL/min/kg | 26.4 nM
25 | COCCn1c(Cc2ccc(-c3cccc(OCc4ccc(C#N)cc4F)n3)c(Br)c2)nc2ccc(C(=O)O)cc21 [Example 261, 2-(3-bromo-4-(6-((4-cyano-2-fluorobenzyl)oxy)pyridin-2-yl)benzyl)-1-(2-methoxyethyl)-1H-benzo[d]imidazole-6-carboxylic acid] | 8 mL/min/kg | 184 nM
26 | N#CCC1(Cn2c(Cc3cc(F)c(-c4ccnc(OCc5ccc(C#N)cc5F)n4)cc3F)nc3ccc(C(N)=O)nc32)CC1 [Example 599, 2-(4-(2-((4-cyano-2-fluorobenzyl)oxy)pyrimidin-4-yl)-2,5-difluorobenzyl)-3-((1-(cyanomethyl)cyclopropyl)methyl)-3H-imidazo[4,5-b]pyridine-5-carboxamide] | 12.3 mL/min/kg | 0.98 nM
27 | N#Cc1ccc(COc2cccc(-c3cc(F)c(Cc4nc5ccc(C(=O)O)cc5n4CC4(F)COC4)cc3F)n2)c(F)c1 [Example 270, 2-(4-(6-((4-cyano-2-fluorobenzyl)oxy)pyridin-2-yl)-2,5-difluorobenzyl)-1-((3-fluorooxetan-3-yl)methyl)-1H-benzo[d]imidazole-6-carboxylic acid] | 4.5 mL/min/kg | 1.82 nM
28 | N#Cc1ccc(COc2ncc(F)c(-c3cc(F)c(Cc4nc5ccc(C(=O)O)cc5n4C[C@@H]4CCO4)cc3F)n2)c(F)c1 [Example 879, 2-[[4-[2-[(4-cyano-2-fluoro-phenyl)methoxy]-5-fluoro-pyrimidin-4-yl]-2,5-difluoro-phenyl]methyl]-3-[[(2S)-oxetan-2-yl]methyl]benzimidazole-5-carboxylic acid] | 6 mL/min/kg | 0.51 nM
